# Data as given in the NIST ThermoML archive (doi:10.1016/j.fluid.2010.10.008).
# ± gives the expanded uncertainty stated by the source.
# Experiment: activity coefficient (dimensionless); of the first substance listed, at infinite dilution; xn = mol fraction of the nth substance listed
# Conditions: Liquid, Chromatography, x1 = 0
activity coefficient (318.15 K),activity coefficient (323.15 K),activity coefficient (333.15 K),activity coefficient (343.15 K),activity coefficient (353.15 K),SMILES
5.58 ± 0.38,5.62 ± 0.38,5.69 ± 0.39,5.75 ± 0.39,5.8 ± 0.4,"COCCOC [1,2-dimethoxyethane] + CCn1cc[n+](C)c1.CS(=O)(=O)[O-]"
0.586 ± 0.042,0.632 ± 0.044,0.739 ± 0.049,0.843 ± 0.054,0.96 ± 0.06,"FC(F)(F)C(Cl)Br (stereo not given) [1-bromo-1-chloro-2,2,2-trifluoroethane] + CCn1cc[n+](C)c1.CS(=O)(=O)[O-]"
34.6 ± 2.4,33.8 ± 2.3,32.6 ± 2.2,31.8 ± 2.2,30.9 ± 2.1,COC(C)(C)C [2-methoxy-2-methylpropane] + CCn1cc[n+](C)c1.CS(=O)(=O)[O-]
0.862 ± 0.055,0.873 ± 0.056,0.887 ± 0.056,0.9 ± 0.057,0.912 ± 0.058,CC#N [acetonitrile] + CCn1cc[n+](C)c1.CS(=O)(=O)[O-]
4.51 ± 0.47,4.5 ± 0.47,4.48 ± 0.47,4.48 ± 0.47,4.46 ± 0.47,c1ccccc1 [benzene] + CCn1cc[n+](C)c1.CS(=O)(=O)[O-]
123 ± 13,115 ± 12,103 ± 11,93.2 ± 9.8,84.3 ± 8.9,C1CCCCC1 [cyclohexane] + CCn1cc[n+](C)c1.CS(=O)(=O)[O-]
0.7 ± 0.047,0.727 ± 0.048,0.78 ± 0.051,0.833 ± 0.054,0.887 ± 0.056,ClCCl [dichloromethane] + CCn1cc[n+](C)c1.CS(=O)(=O)[O-]
127 ± 26,122 ± 25,114 ± 23,107 ± 22,101 ± 20,CC(C)OC(C)C [diisopropyl ether] + CCn1cc[n+](C)c1.CS(=O)(=O)[O-]
3.18 ± 0.22,3.17 ± 0.22,3.16 ± 0.22,3.15 ± 0.21,3.14 ± 0.21,COC(=O)OC [dimethyl carbonate] + CCn1cc[n+](C)c1.CS(=O)(=O)[O-]
0.513 ± 0.038,0.509 ± 0.038,0.501 ± 0.038,0.496 ± 0.038,0.493 ± 0.038,CCO [ethanol] + CCn1cc[n+](C)c1.CS(=O)(=O)[O-]
7.32 ± 0.5,7.29 ± 0.5,7.22 ± 0.49,7.17 ± 0.49,7.12 ± 0.49,CCOC(C)=O [ethyl acetate] + CCn1cc[n+](C)c1.CS(=O)(=O)[O-]
19.1 ± 2,18.8 ± 2,18.3 ± 1.9,17.8 ± 1.9,17.3 ± 1.8,CCc1ccccc1 [ethylbenzene] + CCn1cc[n+](C)c1.CS(=O)(=O)[O-]
344 ± 36,326 ± 34,291 ± 31,262 ± 28,237 ± 25,CCC1CCCCC1 [ethylcyclohexane] + CCn1cc[n+](C)c1.CS(=O)(=O)[O-]
637 ± 130,596 ± 120,523 ± 110,471 ± 96,422 ± 86,CCCCCCC [heptane] + CCn1cc[n+](C)c1.CS(=O)(=O)[O-]
0.238 ± 0.029,0.239 ± 0.029,0.242 ± 0.03,0.244 ± 0.03,0.247 ± 0.03,CO [methanol] + CCn1cc[n+](C)c1.CS(=O)(=O)[O-]
3.59 ± 0.24,3.6 ± 0.25,3.61 ± 0.25,3.63 ± 0.25,3.66 ± 0.25,COC(C)=O [methyl ethanoate] + CCn1cc[n+](C)c1.CS(=O)(=O)[O-]
211 ± 22,198 ± 21,177 ± 19,160 ± 17,147 ± 16,CC1CCCCC1 [methylcyclohexane] + CCn1cc[n+](C)c1.CS(=O)(=O)[O-]
374 ± 26,356 ± 24,325 ± 22,300 ± 21,277 ± 19,C=CCCCCCC [oct-1-ene] + CCn1cc[n+](C)c1.CS(=O)(=O)[O-]
1020 ± 110,949 ± 100,839 ± 89,752 ± 79,676 ± 71,CCCCCCCC [octane] + CCn1cc[n+](C)c1.CS(=O)(=O)[O-]
0.801 ± 0.052,0.789 ± 0.051,0.771 ± 0.05,0.754 ± 0.05,0.742 ± 0.049,CCCO [propan-1-ol] + CCn1cc[n+](C)c1.CS(=O)(=O)[O-]
0.974 ± 0.061,0.958 ± 0.06,0.933 ± 0.059,0.913 ± 0.058,0.9 ± 0.057,CC(C)O [propan-2-ol] + CCn1cc[n+](C)c1.CS(=O)(=O)[O-]
5.37 ± 0.37,5.33 ± 0.36,5.24 ± 0.36,5.18 ± 0.35,5.1 ± 0.35,C1CCOC1 [tetrahydrofuran] + CCn1cc[n+](C)c1.CS(=O)(=O)[O-]
2.04 ± 0.14,2.06 ± 0.14,2.11 ± 0.14,2.16 ± 0.15,2.2 ± 0.15,c1ccsc1 [thiophene] + CCn1cc[n+](C)c1.CS(=O)(=O)[O-]
0.488 ± 0.037,0.515 ± 0.038,0.572 ± 0.041,0.633 ± 0.044,0.694 ± 0.047,ClC(Cl)Cl [trichloromethane] + CCn1cc[n+](C)c1.CS(=O)(=O)[O-]

SMILES,activity coefficient (318.15 K),activity coefficient (323.15 K),activity coefficient (333.15 K),activity coefficient (343.15 K),activity coefficient (353.15 K)
"Cc1cccc(C)c1 [1,3-dimethylbenzene] + CCn1cc[n+](C)c1.CS(=O)(=O)[O-]",20.8 ± 2.2,20.5 ± 2.2,19.9 ± 2.1,19.3 ± 2,18.8 ± 2
CC(C)=O [acetone] + CCn1cc[n+](C)c1.CS(=O)(=O)[O-],2.46 ± 0.17,2.47 ± 0.17,2.47 ± 0.17,2.48 ± 0.17,2.49 ± 0.17
CCC(C)=O [butanone] + CCn1cc[n+](C)c1.CS(=O)(=O)[O-],4.48 ± 0.31,4.46 ± 0.3,4.48 ± 0.31,4.41 ± 0.3,4.38 ± 0.3
C[N+](=O)[O-] [nitromethane] + CCn1cc[n+](C)c1.CS(=O)(=O)[O-],0.612 ± 0.043,0.621 ± 0.043,0.638 ± 0.044,0.653 ± 0.045,0.668 ± 0.045
ClC(Cl)(Cl)Cl [tetrachloromethane] + CCn1cc[n+](C)c1.CS(=O)(=O)[O-],4.93 ± 0.34,5.08 ± 0.35,5.36 ± 0.37,5.62 ± 0.38,5.87 ± 0.4
Cc1ccccc1 [toluene] + CCn1cc[n+](C)c1.CS(=O)(=O)[O-],9.41 ± 0.99,9.37 ± 0.99,9.23 ± 0.97,9.12 ± 0.96,9 ± 0.95
